The source of these data is PMC5118696, “Identification of inhibitors that dually target the new permeability pathway and dihydroorotate dehydrogenase in the blood stage of Plasmodium falciparum” (Scientific Reports, 2016).

Experiment [1] concerns Hyp1-NLuc Plasmodium falciparum-infected erythrocytes (new permeability pathway, NPP). The experiment in a line: microbe, parasite or virus in culture. The conditions noted are these: Erythrocyte, 0.33 h, read-out: % of control remaining.
Experiment [2] has the same test system. The experiment in a line: microbe, parasite or virus in culture. Conditions: Erythrocyte, 0.33 h, read-out: Mean RLU at 28 min (As % of DMSO control).

Like-named read-outs stand apart in the source and are kept apart here.

In the case of `CCC(=O)Nc1nnc(Cc2ccc(OC)c(OC)c2)s1` [MMV020942], the activity at 2 µM in experiment [1] and in experiment [2] was 102% each time.
In the case of `COc1cc(SC)ccc1C(=O)N1CCCC(C)C1` (centres unmarked) [MMV056726], the activity at 2 µM in experiment [1] was 123%; in experiment [2], 122%.
The like results for `CN(C)c1ccc(N=Cc2ccc(N3CCOCC3)cc2)cc1` [MMV073843] were, in that order, 104% and 104%.
Regarding `CCOc1ccc(C2N(C)c3ccccc3N2C)cc1` [MMV075490], the activity at 2 µM in experiment [1] is 116%; in experiment [2], 117%.
For `Nc1nc(Nc2cccc(F)c2)nc2ccccc12` [MMV080034] the same measures were 94.5% and 93.1%.
The like results for `COc1ccc(C=C2SC(Nc3ccc(F)cc3)=NC2=O)c(OC)c1` [MMV084434] were, in that order, 27.1% and 36.5%.
The like results for `COc1cc2c(cc1OC)C1=NNC(=O)C1=NC(C)(C)C2` [MMV084940] were, in that order, 101% and 101%.
Turning to `COc1ccccc1N=C1C(=O)c2ccccc2C(O)=C1N1CCCCC1` [MMV085203], the figures for the activity at 2 µM in experiment [1] and in experiment [2] were 104% and 107%, respectively.
`CCOc1ccc(-n2cc(-c3ccccc3)c3c(SCc4cc(C)ccc4C)ncnc32)cc1` [MMV085471]: the results for the activity at 2 µM in experiment [1] and in experiment [2] were 118% and 104%, respectively.
Consider `CCCCCC(=O)N1c2ccccc2N=C2CC(c3ccc(OC)c(OC)c3)CC(O)=C2C1c1ccc(C(F)(F)F)cc1` (centres unmarked) [MMV085583], for which the activity at 2 µM is 102% in experiment [1] and 103% in experiment [2].
The like results for `Cc1ccc(C(=O)c2oc3ccc4c(C)cc(=O)oc4c3c2C)cc1` [MMV086103] were, in that order, 95.7% and 94.6%.
The like results for `COc1cc(CNCCc2ccc(Cl)cc2)cc(OC)c1O` [MMV128432] were, in that order, 97.8% and 97.7%.
For `CC(C)(C)c1ccc(C(=O)Nc2nc3ccccc3s2)cc1` [MMV142383] the same measures were 121% and 110%.
With `COc1ccc2nc(C)cc(Nc3ccccc3O)c2c1` [MMV274073], the activity at 2 µM in experiment [1] and in experiment [2] was 110% in each case.
As to `COc1ccc(-c2nc(N3CCN(C(=O)C4CCCCC4)CC3)c3c4c(sc3n2)CCCC4)cc1` [MMV396594], the figures for the activity at 2 µM in experiment [1] and in experiment [2] were 87.1% and 88.9%, respectively.
`CCOc1ccccc1CN1CCc2nc3cc(C(C)(C)C)nn3c(O)c2C1` [MMV396595]: the activity at 2 µM in experiment [1] was 86.5%; in experiment [2] it was 88.3%.
For `CCOc1c(Cl)cc(CNCC(O)c2ccccc2)cc1OC` (centres unmarked) [MMV396632] the same measures were 101% and 99.9%.
For `CCOc1cc(CNC(C)C(O)c2ccccc2)cc(Cl)c1OCC` (centres unmarked) [MMV396633] the same measures were 114% and 113%.
The like results for `O=C(NC1CCN(Cc2ccccc2)CC1)c1cc2nc(-c3ccc(Cl)s3)cc(C(F)(F)F)n2n1` [MMV396635] were, in that order, 101% and 101%.
Take `Cc1sc(NC(=O)c2ccccc2)c(C(c2cccs2)N2CCN(c3ccccc3)CC2)c1C` (centres unmarked) [MMV396652]: the activity at 2 µM in experiment [1] was found to be 104%; in experiment [2] it was 101%.
The like results for `Cc1sc(NC(=O)c2ccco2)c(C(c2cccnc2)N2CCC(Cc3ccccc3)CC2)c1C` (centres unmarked) [MMV396663] were, in that order, 92.5% and 97%.
The like results for `CCOC(=O)c1c(C)n(-c2ccccc2)c2ccc(OC(=O)c3cc(OC)c(OC)c(OC)c3)cc12` [MMV396664] were, in that order, 97.3% and 94.9%.
For `COc1cc(C(=O)Nc2nc3c(cc4c5c(cccc53)CC4)s2)cc(OC)c1OC` [MMV396665] the same measures were 102% and 103%.
Turning to `Cc1cc(N2CCCC2)nc(Nc2ccc(NC(=O)CCc3ccccc3)cc2)n1` [MMV396669], the figures for the activity at 2 µM in experiment [1] and in experiment [2] were 76.3% and 90.3%, respectively.
The like results for `O=C(NCC(c1ccsc1)N1CCCCCC1)c1ccc(C(F)(F)F)cc1` (centres unmarked) [MMV396672] were, in that order, 98.1% and 101%.
The like results for `O=C(CSc1nccn2nc(-c3ccccc3)cc12)Nc1cc(C(F)(F)F)ccc1Cl` [MMV396678] were, in that order, 107% and 107%.
The like results for `COc1ccc(-c2cc3c(SCC(=O)Nc4cc(C(F)(F)F)ccc4Cl)nccn3n2)cc1` [MMV396679] were, in that order, 105% and 106%.
With `Cc1ccc(-c2cc3c(SCC(=O)Nc4cc(C(F)(F)F)ccc4Cl)nccn3n2)cc1` [MMV396680], the activity at 2 µM amounted to 101% in experiment [1] and 106% in experiment [2].
For `Cc1cc(NC(=O)c2cccc(C(F)(F)F)c2)n(-c2nc(-c3ccc4c(c3)OCO4)cs2)n1` [MMV396681] the same measures were 102% and 106%.
The like results for `C[n+]1c2ccccc2nc2ccc(NCCO)cc21` [MMV396693] were, in that order, 100% and 101%.
As for `CCN(CC)CCNc1ncnc2c1[nH]c1ccc(Cl)cc12` [MMV396703], the activity at 2 µM in experiment [1] stood at 99.7%; in experiment [2], 110%.
The like results for `CN1CCN(c2ncnc3c2[nH]c2ccc(Cl)cc23)CC1` [MMV396704] were, in that order, 95.6% and 95.9%.
The like results for `COc1cccc(Cn2c(Oc3ccccc3)nc3c2c(=O)n(C)c(=O)n3C)c1` [MMV396705] were, in that order, 101% and 102%.
For `CC1(c2ccccc2)Nc2ccccc2-c2nc3ccccc3n21` (centres unmarked) [MMV396715] the same measures were 100% and 102%.
As for `COc1ccc(CCN2C(=O)c3[nH]nc(-c4cc(Cl)c(C)cc4O)c3C2c2ccccc2F)cc1` (centres unmarked) [MMV396717], the activity at 2 µM is 80.3% in experiment [1] and 96.5% in experiment [2].
For `COc1cccc(C2(C)Nc3ccccc3-c3nc4ccccc4n32)c1` (centres unmarked) [MMV396719] the same measures were 105% and 105%.
The like results for `N=c1n(CCN2CCCCC2)c2ccccc2n1CC(=O)c1ccc(Cl)c(Cl)c1` [MMV396723] were, in that order, 91.7% and 98.3%.
As for `N#Cc1nc(Cc2cccc3ccccc23)oc1N1CCN(C(c2ccccc2)c2ccccc2)CC1` [MMV396726], the activity at 2 µM in experiment [1] was determined as 99.5%; in experiment [2], 99.9%.
The like results for `OC(CNCC1CCCO1)Cn1c2ccc(Cl)cc2c2cc(Cl)ccc21` (centres unmarked) [MMV396736] were, in that order, 112% and 116%.
For `CC(C)CNC(=O)c1c(N)n(CCc2ccccc2F)c2nc3ccccc3nc12` [MMV396744] the same measures were 110% and 108%.
The like results for `COc1ccc2c(c1)C1(Nc3ccccc3-c3nc4ccccc4n31)C(=O)N2` (centres unmarked) [MMV396749] were, in that order, 104% and 103%.
In the case of `O=C(NNc1cc(N2CCCC2)nc(N2CCCC2)n1)c1ccccc1` [MMV396770], the activity at 2 µM is 88.7% in experiment [1] and 101% in experiment [2].
Regarding `CC(C)(C)CC(C)(C)NCC(O)COc1ccc(Cl)cc1Cl` (centres unmarked) [MMV396794], the activity at 2 µM in experiment [1] is 109%; in experiment [2], 111%.
